# According to the supplement of paper PMC10307832:
# Legend:
# Assay in all cases: relative viability (nuclei count vs DMSO), 5 days (fraction); higher = more cells survive
# FH535 + Trametinib = compound: CC1=C(C=CC(=C1)[N+](=O)[O-])NS(=O)(=O)C2=C(C=CC(=C2)Cl)Cl [FH535] + CC(=O)Nc1cccc(-n2c(=O)n(C3CC3)c(=O)c3c(Nc4ccc(I)cc4F)n(C)c(=O)c(C)c32)c1 [Trametinib] (partner 0.02 µM)
# Method in brief: (§1)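 Relative viability divides the nuclei count in treated wells by that in vehicle wells. Lung cancer cell lines were seeded in 1536-well plates, dosed by pin tool the next day, and fixed and stained after 5 days in one step with final 0.05% Triton X-100, 1% formaldehyde and 1 ug/ml Hoechst. Dosing was a single drug or a fixed anchor-drug dose plus five library-drug doses (not always all listed) in √10 steps, and values are medians of duplicate plates imaged at 4×.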
# FH535 + Linsitinib = compound: CC1=C(C=CC(=C1)[N+](=O)[O-])NS(=O)(=O)C2=C(C=CC(=C2)Cl)Cl [FH535] + C[C@]1(O)C[C@@H](c2nc(-c3ccc4ccc(-c5ccccc5)nc4c3)c3c(N)nccn32)C1 [Linsitinib] (partner 1 µM)
# Method in brief: as §1
# FH535 + Pemetrexed = compound: CC1=C(C=CC(=C1)[N+](=O)[O-])NS(=O)(=O)C2=C(C=CC(=C2)Cl)Cl [FH535] + Nc1nc2[nH]cc(CCc3ccc(C(=O)N[C@@H](CCC(=O)O)C(=O)O)cc3)c2c(=O)[nH]1 [Pemetrexed] (partner 0.2 µM)
# Method in brief: as §1
# FH535 + Crizotinib = compound: CC1=C(C=CC(=C1)[N+](=O)[O-])NS(=O)(=O)C2=C(C=CC(=C2)Cl)Cl [FH535] + C[C@@H](Oc1cc(-c2cnn(C3CCNCC3)c2)cnc1N)c1c(Cl)ccc(F)c1Cl [Crizotinib] (partner 1 µM)
# Method in brief: as §1
# FH535 + Olaparib = compound: CC1=C(C=CC(=C1)[N+](=O)[O-])NS(=O)(=O)C2=C(C=CC(=C2)Cl)Cl [FH535] + O=C(c1cc(Cc2n[nH]c(=O)c3ccccc23)ccc1F)N1CCN(C(=O)C2CC2)CC1 [Olaparib] (partner 8 µM)
# Method in brief: as §1
Cell Line,relative viability (FH535 + Trametinib; first compound 0.04 µM),relative viability (FH535 + Trametinib; first compound 0.1265 µM),relative viability (FH535 + Trametinib; first compound 0.4 µM),relative viability (FH535 + Trametinib; first compound 1.265 µM),relative viability (FH535 + Linsitinib; first compound 0.04 µM),relative viability (FH535 + Linsitinib; first compound 0.1265 µM),relative viability (FH535 + Linsitinib; first compound 0.4 µM),relative viability (FH535 + Linsitinib; first compound 1.265 µM),relative viability (FH535 + Pemetrexed; first compound 0.04 µM),relative viability (FH535 + Pemetrexed; first compound 0.1265 µM),relative viability (FH535 + Pemetrexed; first compound 0.4 µM),relative viability (FH535 + Pemetrexed; first compound 1.265 µM),relative viability (FH535 + Crizotinib; first compound 0.04 µM),relative viability (FH535 + Crizotinib; first compound 0.1265 µM),relative viability (FH535 + Crizotinib; first compound 0.4 µM),relative viability (FH535 + Crizotinib; first compound 1.265 µM),relative viability (FH535 + Olaparib; first compound 0.04 µM),relative viability (FH535 + Olaparib; first compound 0.1265 µM),relative viability (FH535 + Olaparib; first compound 0.4 µM),relative viability (FH535 + Olaparib; first compound 1.265 µM)
201T,0.718,0.72,0.69,0.562,1.05,1.03,0.95,0.964,0.344,0.336,0.356,0.275,0.99,1.09,0.975,0.875,0.812,0.856,0.827,0.59
A-427,0.712,0.752,0.675,0.61,1.13,1.18,1.07,0.981,0.979,0.973,0.953,0.785,0.929,0.908,0.784,0.721,0.799,0.774,0.731,0.513
ABC-1,–,–,–,–,0.963,0.836,0.864,0.788,–,–,–,–,1.19,0.866,1.2,0.618,0.705,0.896,0.94,0.37
BEN,0.931,0.99,0.948,0.666,0.811,0.976,0.918,0.508,0.708,0.755,0.638,0.613,0.813,0.859,0.792,0.535,1.02,1.1,0.831,0.636
CAL-12T,0.336,0.438,0.367,0.347,0.871,0.796,0.712,0.598,1.24,1.38,1.04,0.877,0.817,0.691,0.719,0.556,0.693,0.813,0.612,0.411
COR-L23,0.52,0.604,0.515,0.371,0.926,0.889,0.722,0.581,0.188,0.192,0.2,0.205,0.626,0.656,0.57,0.434,0.375,0.35,0.309,0.244
COR-L 105,0.483,0.404,0.422,0.444,0.903,0.933,0.894,0.91,1.16,1.08,0.943,0.968,0.751,0.885,0.792,0.86,0.693,0.699,0.747,0.648
ChaGo-K-1,0.871,0.896,0.742,0.503,–,–,–,–,0.259,0.237,0.273,0.255,1.05,1.19,1.09,0.708,0.384,0.404,0.403,0.286
EKVX,0.319,0.391,0.292,0.293,1.03,1.05,0.967,0.854,0.366,0.47,0.413,0.379,0.824,1.07,0.998,0.609,0.737,0.906,0.903,0.762
EMC-BAC-2,0.804,0.9,0.869,0.892,0.822,0.873,0.771,0.753,0.408,0.422,0.419,0.423,0.766,0.799,0.739,0.677,0.445,0.467,0.46,0.442
EPLC-272H,0.272,0.296,0.299,0.262,1.04,1.17,1.03,1.05,0.301,0.366,0.353,0.308,0.943,1.07,0.868,0.838,0.766,0.92,0.849,0.636
H3255,0.563,0.604,0.582,0.55,0.87,1.04,0.884,0.727,0.58,0.564,0.545,0.577,0.896,0.806,0.853,0.705,0.515,0.527,0.514,0.381
HARA,0.759,0.711,0.643,0.461,0.774,0.889,1.03,0.584,0.258,0.254,0.234,0.286,1.06,1.08,0.929,0.52,0.588,0.873,0.829,0.353
HCC-15,0.288,0.358,0.406,0.316,0.879,0.862,0.884,0.595,0.256,0.216,0.229,0.212,0.798,0.819,0.747,0.52,0.702,0.706,0.688,0.519
HCC-44,1.06,0.986,1.03,0.967,0.704,0.647,0.705,0.469,0.647,0.687,0.604,0.628,0.908,0.755,0.75,0.682,0.976,0.929,0.969,0.768
HCC-78,0.694,0.713,0.602,0.665,0.456,0.557,0.558,0.527,0.837,0.868,0.904,0.871,0.3,0.373,0.342,0.311,0.695,0.764,0.885,0.673
HCC-366,0.379,0.387,0.274,0.34,0.578,0.852,0.514,0.465,0.169,0.134,0.174,0.159,0.392,0.614,0.594,0.354,0.302,0.333,0.373,0.332

Cell Line,relative viability (FH535 + Trametinib; first compound 0.04 µM),relative viability (FH535 + Trametinib; first compound 0.1265 µM),relative viability (FH535 + Trametinib; first compound 0.4 µM),relative viability (FH535 + Trametinib; first compound 1.265 µM),relative viability (FH535 + Linsitinib; first compound 0.04 µM),relative viability (FH535 + Linsitinib; first compound 0.1265 µM),relative viability (FH535 + Linsitinib; first compound 0.4 µM),relative viability (FH535 + Linsitinib; first compound 1.265 µM),relative viability (FH535 + Pemetrexed; first compound 0.04 µM),relative viability (FH535 + Pemetrexed; first compound 0.1265 µM),relative viability (FH535 + Pemetrexed; first compound 0.4 µM),relative viability (FH535 + Pemetrexed; first compound 1.265 µM),relative viability (FH535 + Crizotinib; first compound 0.04 µM),relative viability (FH535 + Crizotinib; first compound 0.1265 µM),relative viability (FH535 + Crizotinib; first compound 0.4 µM),relative viability (FH535 + Crizotinib; first compound 1.265 µM),relative viability (FH535 + Olaparib; first compound 0.04 µM),relative viability (FH535 + Olaparib; first compound 0.1265 µM),relative viability (FH535 + Olaparib; first compound 0.4 µM),relative viability (FH535 + Olaparib; first compound 1.265 µM)
HCC-827,0.504,0.545,0.538,0.42,0.89,0.937,0.863,0.714,0.237,0.246,0.216,0.263,0.924,0.872,0.904,0.564,0.627,0.676,0.574,0.359
HOP-62,0.374,0.373,0.391,0.355,1.01,1.09,1.07,0.713,0.322,0.267,0.345,0.35,0.953,1.01,0.69,0.988,0.278,0.36,0.4,0.453
IA-LM,–,–,–,–,0.624,0.525,0.687,0.45,–,–,–,–,0.867,0.771,0.645,0.633,0.768,0.732,0.712,0.503
LC-2-ad,0.886,0.878,0.88,0.766,0.846,0.829,0.771,0.502,0.271,0.296,0.249,0.31,0.462,0.477,0.458,0.452,0.74,0.703,0.713,0.526
LCLC-97TM1,0.175,0.191,0.178,0.203,–,0.202,0.204,0.185,0.155,0.173,0.156,0.135,–,0.583,0.322,0.296,0.407,0.342,0.314,0.274
LCLC-103H,0.711,0.665,0.707,0.5,1.06,1.09,1.21,0.868,0.456,0.48,0.467,0.52,1.04,1.11,1.02,0.844,0.757,0.774,0.75,0.474
LK-2,0.637,0.688,0.81,0.732,0.477,0.487,0.673,0.561,0.271,0.288,0.278,0.307,0.224,0.236,0.252,0.226,0.579,0.615,0.942,0.735
LOU-NH91,0.729,0.819,0.75,0.525,0.861,1.02,0.932,0.506,0.377,0.428,0.429,0.457,0.622,0.721,0.698,0.477,0.876,0.905,0.793,0.421
LU99A,0.475,0.572,0.576,0.338,0.385,0.546,0.532,0.571,0.148,0.171,0.199,0.239,0.508,0.598,0.604,0.584,0.246,0.28,0.274,0.283
NCI-H522,0.731,0.968,0.804,0.622,–,–,–,–,0.847,1.01,0.994,1.08,–,–,–,–,0.686,0.717,0.632,0.467
NCI-H727,0.402,0.362,0.365,0.387,0.367,0.192,0.293,0.216,–,–,–,–,0.917,0.848,0.823,0.783,0.746,0.675,0.527,0.549
NCI-H1395,0.936,1.02,1.06,0.874,0.877,1.41,1.07,0.862,0.768,0.854,0.829,0.773,–,–,–,–,0.491,0.46,0.437,0.414
NCI-H1650,0.476,0.714,0.459,0.584,–,–,–,–,0.408,0.371,0.355,0.306,1.01,1.09,1.15,0.839,0.841,0.741,0.698,0.641
NCI-H1703,–,–,–,–,1.02,0.635,0.561,0.564,–,–,–,–,0.922,0.63,0.589,0.408,0.429,0.461,0.486,0.392
NCI-H1793,0.4,0.421,0.425,0.399,0.785,0.917,0.867,0.778,0.655,0.932,0.66,0.584,–,–,–,–,0.801,0.94,0.826,0.454
NCI-H2170,0.964,0.883,0.752,0.706,–,–,–,–,0.262,0.253,0.252,0.259,1.14,1.3,1.19,1.04,0.624,0.585,0.49,0.389
SW 900,0.839,1.09,0.853,0.75,–,–,–,–,0.441,0.479,0.501,0.472,–,–,–,–,0.923,0.838,0.804,0.657
